Results on 16 compounds are retold here after patent US9255094B2, “Pyrido[4,3-B]indoles and methods of use” (Medivation Technologies, Inc., priority 2009, dated 2016).

The target in assay [1] is T1, human recombinant adrenergic α2C receptor (Homo sapiens, UniProt P18825).
T1 construct: expressed in transfected cells; host or cells: insect Sf9 cells
T1 sequence (P18825 1-462): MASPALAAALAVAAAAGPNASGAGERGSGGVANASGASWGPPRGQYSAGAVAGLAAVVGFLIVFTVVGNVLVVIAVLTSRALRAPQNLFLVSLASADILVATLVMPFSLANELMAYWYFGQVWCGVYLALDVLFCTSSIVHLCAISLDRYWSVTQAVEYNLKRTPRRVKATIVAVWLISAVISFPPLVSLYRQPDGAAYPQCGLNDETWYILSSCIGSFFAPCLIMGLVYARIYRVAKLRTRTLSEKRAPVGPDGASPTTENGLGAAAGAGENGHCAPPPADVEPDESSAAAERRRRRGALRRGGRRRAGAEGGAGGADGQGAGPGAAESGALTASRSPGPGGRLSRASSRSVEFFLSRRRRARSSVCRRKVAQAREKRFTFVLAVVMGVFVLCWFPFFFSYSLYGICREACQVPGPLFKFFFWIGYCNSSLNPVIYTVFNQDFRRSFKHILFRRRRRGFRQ
Briefly: Adrenergic α2C radioligand binding assay ([3H]MK-912). Particulars: compound at 0.1 μM; 1 nM [3H]MK-912; insect Sf9 cells; read-out: Percent Inhibition of ligand binding, Adrenergic (0.1 μM) a2C. Here is the method:
To evaluate in radioligand binding assays the activity of compounds of the invention, human recombinant adrenergic α2C receptor expressed in insect Sf9 cells (Uhlen S et al. J. Pharmacol. Exp. Ther. 271:1558, 1994) in a modified Tris-HCl buffer (50 mM Tris-HCl, pH 7.4, 12.5 mM MgCl2, 2 mM EDTA) is used. Compounds of the invention are incubated with 1 nM [^3H]MK-912 for 60 min at 25° C. Non-specific binding is estimated in the presence of 10 μM WB-4101. Receptor proteins are filtered and washed, the filters are then counted to determine [^3H]MK-912 specifically bound. Compounds are screened at 1 μM or lower, using 1% DMSO as vehicle. Compounds of the invention are tested in this biochemical assay and percent inhibition of specific binding is determined.

Assay [2] concerns the target T2, human recombinant serotonin (5-Hydroxytryptamine) 5-HT2A receptor (Homo sapiens, UniProt P28223).
T2 construct: expressed in transfected cells; host or cells: Chinese hamster ovary (CHO-K1) cells
Kind of assay: Serotonin 5-HT2A radioligand binding assay ([3H]Ketanserin). Particulars: 0.5 nM [3H]Ketanserin, CHO-K1 cells; for inhibition at 0.1 µM: compound at 0.1 μM, read-out: Percent Inhibition of ligand binding, Serotonin (0.1 μM) 5-HT2A; for inhibition at 1 µM: compound at 1 μM, read-out: Percent Inhibition of ligand binding, Serotonin (1 μM) 5-HT2A. The method, then: Compounds of the invention were incubated with 0.5 nM [^3H]Ketanserin for 60 min at 25° C. Non-specific binding was estimated in the presence of 1 μM Mianserin. Receptor proteins were filtered and washed, the filters were then counted to determine [^3H]Ketanserin specifically bound. Compounds were screened at 1 μM or lower, using 1% DMSO as vehicle. Biochemical assay results are presented as the percent inhibition of specific binding in Table 4.

In assay [3] the target is T3, rat adrenergic α1A receptor (Rattus norvegicus, UniProt P43140).
T3 construct: from tissue; host or cells: Wistar Rat submaxillary glands
T3 sequence (P43140 1-466): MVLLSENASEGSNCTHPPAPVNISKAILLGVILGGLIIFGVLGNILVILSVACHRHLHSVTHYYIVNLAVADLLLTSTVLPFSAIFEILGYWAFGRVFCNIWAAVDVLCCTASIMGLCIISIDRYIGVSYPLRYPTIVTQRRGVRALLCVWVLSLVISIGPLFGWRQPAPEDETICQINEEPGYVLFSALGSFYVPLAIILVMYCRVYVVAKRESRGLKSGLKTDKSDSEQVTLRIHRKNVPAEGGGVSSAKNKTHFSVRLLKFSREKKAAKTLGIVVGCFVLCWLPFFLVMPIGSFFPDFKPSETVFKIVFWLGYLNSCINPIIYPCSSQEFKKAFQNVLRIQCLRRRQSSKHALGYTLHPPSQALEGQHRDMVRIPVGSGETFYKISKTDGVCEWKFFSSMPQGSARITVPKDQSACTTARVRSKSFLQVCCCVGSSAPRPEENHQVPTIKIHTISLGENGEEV
Briefly: Adrenergic α1A radioligand binding assay ([3H]Prozosin). Particulars: compound at 0.1 μM; 0.25 nM [3H]Prozosin; Wistar Rat submaxillary glands; read-out: Percent Inhibition of ligand binding, Adrenergic (0.1 μM) a1A. Here is the method:
To evaluate in radioligand binding assays the activity of compounds of the invention, rat adrenergic α1A receptor obtained from Wistar Rat submaxillary glands (Michel, A. D. et al., Br. J. Pharmacol. 98:883, 1989) in a modified Tris-HCl buffer (50 mM Tris-HCl buffer, pH 7.4, 0.5 mM EDTA) is used. Compounds of the invention are incubated with 0.25 nM [^3H]Prozosin for 60 min at 25° C. Non-specific binding is estimated in the presence of 10 μM phentolamine. Receptor proteins are filtered and washed, the filters are then counted to determine [^3H]Prozosin specifically bound. Compounds of the invention are screened at 1 μM or lower, using 1% DMSO as vehicle. Compounds of the invention are tested in this biochemical assay and percent inhibition of specific binding is determined.

The target of assay [4] is T4, human recombinant serotonin (5-Hydroxytryptamine) 5-HT2C receptor (Homo sapiens, UniProt P28335).
T4 construct: expressed in transfected cells; host or cells: Chinese hamster ovary (CHO-K1) cells
T4 sequence (P28335 33-458): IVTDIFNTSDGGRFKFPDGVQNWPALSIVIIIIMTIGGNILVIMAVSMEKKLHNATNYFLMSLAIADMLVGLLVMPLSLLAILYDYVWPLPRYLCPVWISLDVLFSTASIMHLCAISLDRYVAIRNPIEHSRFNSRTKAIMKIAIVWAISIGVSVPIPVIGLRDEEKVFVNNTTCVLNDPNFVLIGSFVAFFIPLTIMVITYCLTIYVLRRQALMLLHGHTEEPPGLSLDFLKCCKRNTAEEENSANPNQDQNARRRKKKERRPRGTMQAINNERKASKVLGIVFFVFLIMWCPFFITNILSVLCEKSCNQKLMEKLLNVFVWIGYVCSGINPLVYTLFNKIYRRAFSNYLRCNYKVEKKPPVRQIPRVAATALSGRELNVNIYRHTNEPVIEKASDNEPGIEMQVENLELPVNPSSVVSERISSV
Kind of assay: Serotonin 5-HT2C radioligand binding assay ([3H]Mesulergine). Particulars: 1 nM [3H]Mesulergine, CHO-K1 cells; for inhibition at 0.1 µM: compound at 0.1 μM, read-out: Percent Inhibition of ligand binding, Serotonin (0.1 μM) 5-HT2C; for inhibition at 1 µM: compound at 1 μM, read-out: Percent Inhibition of ligand binding, Serotonin (1 μM) 5-HT2C. Here is the method: Compounds of the invention were incubated with 1 nM [^3H]Mesulergine for 60 min at 25° C. Non-specific binding was estimated in the presence of 1 μM Mianserin. Receptor proteins were filtered and washed, the filters were then counted to determine [^3H]Mesulergine specifically bound. Compounds were screened at 1 μM or lower, using 1% DMSO as vehicle. Biochemical assay results are presented as the percent inhibition of specific binding in Table 4.

T2 sequence (P28223 whole entry): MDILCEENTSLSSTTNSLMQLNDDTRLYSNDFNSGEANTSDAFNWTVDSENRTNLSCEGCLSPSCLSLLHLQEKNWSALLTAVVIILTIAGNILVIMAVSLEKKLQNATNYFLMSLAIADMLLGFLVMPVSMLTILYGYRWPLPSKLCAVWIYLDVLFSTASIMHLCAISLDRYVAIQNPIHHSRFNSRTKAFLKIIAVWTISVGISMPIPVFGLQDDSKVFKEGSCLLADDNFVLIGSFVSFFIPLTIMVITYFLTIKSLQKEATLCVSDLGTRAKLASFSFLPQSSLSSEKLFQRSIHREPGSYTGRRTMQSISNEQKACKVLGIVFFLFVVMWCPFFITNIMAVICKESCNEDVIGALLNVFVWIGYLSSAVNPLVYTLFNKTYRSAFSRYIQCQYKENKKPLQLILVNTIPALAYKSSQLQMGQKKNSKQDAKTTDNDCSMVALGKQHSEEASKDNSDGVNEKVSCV

As a reminder, the inhibition is the relative decrease from the control value, in per cent. Take `Cc1ccc2c(c1)c1c(n2CC(C)(C)c2ccncc2)CCN(C)C1` [Compound 1-49, 2,8-dimethyl-5-(2-methyl-2-(pyridin-4-yl)propyl)-2,3,4,5-tetrahydro-1H-pyrido[4,3-b]indole]: the inhibition at 0.1 µM in assay [1] came out at 43%; in assay [2], 78%; in assay [3], 13%; in assay [4], 96%.
Take `CCCC[C@](O)(Cn1c2c(c3cc(Cl)ccc31)CN(C)CC2)c1ccc(F)cc1` [Compound 1-61, (R)-1-(8-Chloro-2-methyl-3,4-dihydro-1H-pyrido[4,3-b]indol-5(2H)-yl)-2-(4-fluorophenyl)hexan-2-ol]: the inhibition at 0.1 µM in assay [1] was found to be 11%; in assay [2] it was 81%; in assay [3], 1%; in assay [4] it was 88%.
Consider `Cc1ccc2c(c1)c1c(n2CCc2ccc(CCCN)nc2)CCN(C)C1` [Compound 1-40, 3-(5-(2-(2,8-dimethyl-3,4-dihydro-1H-pyrido[4,3-b]indol-5(2H)-yl)ethyl)pyridin-2-yl)propan-1-amine], for which the results for the inhibition at 1 µM in assay [2] and in assay [4] were 78% and 91%, respectively.
Turning to `Cc1ccc2c(c1)c1c(n2CCc2ccc(C(F)(F)F)nc2)CCNC1` [Compound 1-41, 8-methyl-5-(2-(6-(trifluoromethyl)pyridin-3-yl)ethyl)-2,3,4,5-tetrahydro-1H-pyrido[4,3-b]indole], the figures for the inhibition at 1 µM in assay [2] and in assay [4] were 66% and 41%, respectively.
Consider `CN1CCc2c(c3cc(Cl)c(Cl)cc3n2CC(C)(O)c2ccncc2)C1` (centres unmarked) [Compound 1-17, 1-(7,8-dichloro-2-methyl-3,4-dihydro-1H-pyrido[4,3-b]indol-5(2H)-yl)-2-(pyridin-4-yl)propan-2-ol], for which the inhibition at 0.1 µM amounted to 39% in assay [1] and 0% in assay [3]. The inhibition at 1 µM in assay [2] amounted to 96%.
In the case of `Cc1ccc2c(c1)c1c(n2CCc2ccc(C)nc2)CCN(CCC#N)C1` [Compound 1-34, 3-(8-methyl-5-(2-(6-methylpyridin-3-yl)ethyl)-3,4-dihydro-1H-pyrido[4,3-b]indol-2(5H)-yl)propanenitrile], the inhibition at 1 µM came to 0% in assay [2] and 16% in assay [4].
For `CN1CCc2c(c3cc(Cl)ccc3n2CC(=O)c2ccccc2)C1` [Compound 1-36, 2-(8-chloro-2-methyl-3,4-dihydro-1H-pyrido[4,3-b]indol-5(2H)-yl)-1-phenylethanone], the inhibition at 1 µM in assay [2] worked out at 98%; in assay [4], 94%.
For the compound `Cc1ccc2c(c1)c1c(n2CC(C)(O)c2ccc(O)cc2)CCN(C)C1` (centres unmarked) [Compound 1-15, 4-(1-(2,8-dimethyl-3,4-dihydro-1H-pyrido[4,3-b]indol-5(2H)-yl)-2-hydroxypropan-2-yl)phenol], the values for the inhibition at 0.1 µM in assay [1] and in assay [3] were 5% and 36%, respectively. The inhibition at 1 µM in assay [2] came out at 102%.
As to `Cc1ccc2c(c1)c1c(n2CC(=O)c2ccc(F)cc2)CCN(C)C1` [Compound 1-39, 2-(2,8-dimethyl-3,4-dihydro-1H-pyrido[4,3-b]indol-5(2H)-yl)-1-(4-fluorophenyl)ethanone], the inhibition at 1 µM in assay [2] stood at 98%; in assay [4], 104%.
For `Cc1ccc2c(c1)c1c(n2CC(=O)c2ccccc2)CCN(C)C1` [Compound 1-35, 2-(2,8-dimethyl-3,4-dihydro-1H-pyrido[4,3-b]indol-5(2H)-yl)-1-phenylethanone], the inhibition at 1 µM in assay [2] was 90%; in assay [4], 75%.
As for `CN1CCc2c(c3cc(Cl)ccc3n2CC(O)c2ccncc2)C1` (centres unmarked) [Compound 1-11, 2-(8-chloro-2-methyl-3,4-dihydro-1H-pyrido[4,3-b]indol-5(2H)-yl)-1-(pyridin-4-yl)ethanol], the inhibition at 0.1 µM in assay [1] worked out at 26%; in assay [3], 12%. Further, the inhibition at 1 µM in assay [2] came to 82%.
The like results for `Cc1ccc2c(c1)c1c(n2CC(O)c2ccncc2)CCN(C)C1` (centres unmarked) [Compound 1-8, 2-(2,8-dimethyl-3,4-dihydro-1H-pyrido[4,3-b]indol-5(2H)-yl)-1-(pyridin-4-yl)ethanol] were, in that order, 5%, 9% and 86%.
With `CN1CCc2c(c3cc(Cl)ccc3n2CC(=O)c2ccc(F)cc2)C1` [Compound 1-37, 2-(8-chloro-2-methyl-3,4-dihydro-1H-pyrido[4,3-b]indol-5(2H)-yl)-1-(4-fluorophenyl)ethanone], the inhibition at 1 µM in assay [2] was 98%; in assay [4], 97%.
With `Cc1ccc2c(c1)c1c(n2CCc2ccc(C)nc2)CCN(CCCO)C1` [Compound 1-42, 3-(8-methyl-5-(2-(6-methylpyridin-3-yl)ethyl)-3,4-dihydro-1H-pyrido[4,3-b]indole-2(5H)-yl)propan-1-ol], the inhibition at 1 µM in assay [2] was determined as 87%; in assay [4] it was 90%.
Regarding `COc1ccc([C@](C)(O)Cn2c3c(c4cc(C)ccc42)CN(C)CC3)cc1` [Compound 1-20, (S)-1-(2,8-Dimethyl-3,4-dihydro-1H-pyrido[4,3-b]indol-5(2H)-yl)-2-(4-methoxyphenyl)propan-2-ol], the inhibition at 0.1 µM in assay [1] was found to be 28%; in assay [2], 91%; in assay [3], 13%.
Take `CN1CCc2c(c3cc(Cl)ccc3n2CC(=O)c2ccc(Cl)cc2)C1` [Compound 1-38, 2-(8-chloro-2-methyl-3,4-dihydro-1H-pyrido[4,3-b]indol-5(2H)-yl)-1-(4-chlorophenyl)ethanone]: the inhibition at 1 µM turned out to be 100% in assay [2] and 101% in assay [4].
